Source: ChEMBL document CHEMBL5584328, “Integrating computational and experimental chemical biology revealed variable anticancer activities of phosphodiesterase isoenzyme 5 inhibitors (PDE5i) in lung cancer” (RSC Med Chem, 2024)
Calls of active or inactive are those of the source. The calls are words filed in the database; no cut-off is given here.

How the values were obtained:
[1] = tested on: NCI-H661; assay: Antiproliferative activity against human NCI-H661 cells measured after 24 hrs by MTT assay; assay type: functional, cell-based; conditions: for IC50: NCI-H661, 24 h
[2] = tested on: A549; assay: Antiproliferative activity against human A549 cells measured after 48 hrs by MTT assay; assay type: functional, cell-based; conditions: for IC50: A549, 48 h
[3] = tested on: A549; assay: Reduction in PDE5 gene expression in human A549 cells at 0.1 IC50 measured after 48 hrs by qRT-PCR analysis; assay type: functional, cell-based
[4] = tested on: NCI-H661; assay: Potentiation of cisplatin-induced cytotoxicity against human NCI-H661 cells assessed as fold reduction in cisplatin IC50 at 1:9 ratio of cisplatin to compound measured after 48 hrs by MTT assay relative to cisplatin alone; assay type: functional
[5] = tested on: A549; assay: Cell cycle arrest in human A549 cells assessed as increase in cell population at G0/G1 phase at 85 uM measured after 48 hrs by propidium iodide staining based flow cytometry; assay type: functional
[6] = tested on: A549; assay: Antiproliferative activity against human A549 cells measured after 72 hrs by MTT assay; assay type: functional, cell-based; conditions: for IC50: A549, 72 h
[7] = tested on: NCI-H661; assay: Antiproliferative activity against human NCI-H661 cells measured after 48 hrs by MTT assay; assay type: functional, cell-based; conditions: for IC50: NCI-H661, 48 h
[8] = tested on: NCI-H1299; assay: Antiproliferative activity against human NCI-H1299 cells measured after 48 hrs by MTT assay; assay type: functional, cell-based; conditions: for IC50: NCI-H1299, 48 h
[9] = tested on: A549; assay: Potentiation of raloxifene-induced cytotoxicity against human A549 cells assessed as fold reduction in raloxifene IC50 at 1:4 ratio of raloxifene to compound measured after 48 hrs by MTT assay relative to raloxifene alone; assay type: functional
[10] = tested on: NCI-H1299; assay: Potentiation of raloxifene-induced cytotoxicity against human NCI-H1299 cells assessed as fold reduction in raloxifene IC50 at 1:5 ratio of raloxifene to compound measured after 48 hrs by MTT assay relative to raloxifene alone; assay type: functional
[11] = tested on: A549; assay: Antiproliferative activity against human A549 cells by MTT assay; assay type: functional, cell-based; conditions: time 24-72 hrs, TDE = time-dependent effect
[12] = tested on: A549; assay: Induction of apoptosis in human A549 cells assessed as increase in apoptotic cells at 340 uM measured after 48 hrs by Annexin V-FITC/PI staining based flow cytometry relative to control; assay type: functional
[13] = tested on: NCI-H1299; assay: Antiproliferative activity against human NCI-H1299 cells measured after 72 hrs by MTT assay; assay type: functional, cell-based; conditions: for IC50: NCI-H1299, 72 h
[14] = tested on: NCI-H1299; assay: Potentiation of raloxifene-induced cytotoxicity against human NCI-H1299 cells assessed as combination index at 1:5 ratio of raloxifene to compound measured after 48 hrs by MTT assay; assay type: functional
[15] = tested on: NCI-H1299; assay: Antiproliferative activity against human NCI-H1299 cells by MTT assay; assay type: functional, cell-based; conditions: time 24-72 hrs, TDE = time-dependent effect
[16] = tested on: A549; assay: Potentiation of raloxifene-induced cytotoxicity against human A549 cells assessed as combination index at 1:4 ratio of raloxifene to compound measured after 48 hrs by MTT assay; assay type: functional
[17] = tested on: NCI-H661; assay: Potentiation of raloxifene-induced cytotoxicity against human NCI-H661 cells assessed as combination index at 1:5 ratio of raloxifene to compound measured after 48 hrs by MTT assay; assay type: functional
[18] = tested on: A549; assay: Reduction in PDE5 protein expression in human A549 cells at 0.25 to 0.5 IC50 measured after 48 hrs by Western blot analysis; assay type: functional, cell-based
[19] = tested on: NCI-H1299; assay: Antiproliferative activity against human NCI-H1299 cells measured after 24 hrs by MTT assay; assay type: functional, cell-based; conditions: for IC50: NCI-H1299, 24 h
[20] = tested on: A549; assay: Inhibition of colony formation in human A549 cells assessed as reduction in number of colonies at 85 to 170 uM measured after 48 hrs by colony formation assay; assay type: functional, cell-based; conditions: dose 85-170 µM
[21] = tested on: NCI-H1299; assay: Potentiation of cisplatin-induced cytotoxicity against human NCI-H1299 cells assessed as combination index at 1:9 ratio of cisplatin to compound measured after 48 hrs by MTT assay; assay type: functional
[22] = tested on: A549; assay: Reduction in Bcl-2 gene expression in human A549 cells at 0.1 IC50 measured after 48 hrs by qRT-PCR analysis; assay type: functional, cell-based
[23] = tested on: NCI-H1299; assay: Potentiation of cisplatin-induced cytotoxicity against human NCI-H1299 cells assessed as fold reduction in cisplatin IC50 at 1:9 ratio of cisplatin to compound measured after 48 hrs by MTT assay relative to cisplatin alone; assay type: functional
[24] = tested on: NCI-H661; assay: Antiproliferative activity against human NCI-H661 cells measured after 72 hrs by MTT assay; assay type: functional, cell-based; conditions: for IC50: NCI-H661, 72 h
[25] = tested on: NCI-H1299; assay: Antimigratory activity against human NCI-H1299 cells assessed as reduction in wound closure measured after 24 hrs by wound healing assay; assay type: functional, cell-based
[26] = tested on: A549; assay: Potentiation of cisplatin-induced cytotoxicity against human A549 cells assessed as combination index at 1:7 ratio of cisplatin to compound measured after 48 hrs by MTT assay; assay type: functional
[27] = tested on: A549; assay: Antiproliferative activity against human A549 cells measured after 24 hrs by MTT assay; assay type: functional, cell-based; conditions: for IC50: A549, 24 h
[28] = tested on: A549; assay: Inhibition of colony formation in human A549 cells assessed as reduction in size of colonies at 85 to 170 uM measured after 48 hrs by colony formation assay; assay type: functional, cell-based; conditions: dose 85-170 µM
[29] = tested on: NCI-H661; assay: Antiproliferative activity against human NCI-H661 cells by MTT assay; assay type: functional, cell-based; conditions: time 24-72 hrs, TDE = time-dependent effect
[30] = tested on: A549; assay: Potentiation of cisplatin-induced cytotoxicity against human A549 cells assessed as fold reduction in cisplatin IC50 at 1:7 ratio of cisplatin to compound measured after 48 hrs by MTT assay relative to cisplatin alone; assay type: functional
[31] = tested on: NCI-H661; assay: Potentiation of cisplatin-induced cytotoxicity against human NCI-H661 cells assessed as combination index at 1:9 ratio of cisplatin to compound measured after 48 hrs by MTT assay; assay type: functional
[32] = tested on: NCI-H661; assay: Potentiation of raloxifene-induced cytotoxicity against human NCI-H661 cells assessed as fold reduction in raloxifene IC50 at 1:5 ratio of raloxifene to compound measured after 48 hrs by MTT assay relative to raloxifene alone; assay type: functional
[33] = tested on: NCI-H1299; assay: Potentiation of cisplatin-induced cytotoxicity against human NCI-H1299 cells assessed as combination index at 1:35 ratio of cisplatin to compound measured after 48 hrs by MTT assay; assay type: functional
[34] = tested on: A549; assay: Inhibition of colony formation in human A549 cells assessed as reduction in size of colonies at 52.5 to 105 uM measured after 48 hrs by colony formation assay; assay type: functional, cell-based; conditions: dose 52.5-105 µM
[35] = tested on: A549; assay: Inhibition of colony formation in human A549 cells assessed as reduction in number of colonies at 52.5 to 105 uM measured after 48 hrs by colony formation assay; assay type: functional, cell-based; conditions: dose 52.5-105 µM
[36] = tested on: NCI-H661; assay: Potentiation of cisplatin-induced cytotoxicity against human NCI-H661 cells assessed as combination index at 1:14 ratio of cisplatin to compound measured after 48 hrs by MTT assay; assay type: functional
[37] = tested on: A549; assay: Cell cycle arrest in human A549 cells assessed as increase in cell population at G2 phase at 52.5 uM measured after 48 hrs by propidium iodide staining based flow cytometry; assay type: functional
[38] = tested on: NCI-H1299; assay: Potentiation of raloxifene-induced cytotoxicity against human NCI-H1299 cells assessed as fold reduction in raloxifene IC50 at 1:20 ratio of raloxifene to compound measured after 48 hrs by MTT assay relative to raloxifene alone; assay type: functional
[39] = tested on: NCI-H1299; assay: Potentiation of cisplatin-induced cytotoxicity against human NCI-H1299 cells assessed as fold reduction in cisplatin IC50 at 1:35 ratio of cisplatin to compound measured after 48 hrs by MTT assay relative to cisplatin alone; assay type: functional
[40] = tested on: A549; assay: Potentiation of cisplatin-induced cytotoxicity against human A549 cells assessed as fold reduction in cisplatin IC50 at 1:4 ratio of cisplatin to compound measured after 48 hrs by MTT assay relative to cisplatin alone; assay type: functional
[41] = tested on: A549; assay: Induction of apoptosis in human A549 cells assessed as increase in apoptotic cells at 210 uM measured after 48 hrs by Annexin V-FITC/PI staining based flow cytometry relative to control; assay type: functional
[42] = tested on: A549; assay: Potentiation of raloxifene-induced cytotoxicity against human A549 cells assessed as combination index at 1:2 ratio of raloxifene to compound measured after 48 hrs by MTT assay; assay type: functional
[43] = tested on: NCI-H1299; assay: Potentiation of raloxifene-induced cytotoxicity against human NCI-H1299 cells assessed as combination index at 1:20 ratio of raloxifene to compound measured after 48 hrs by MTT assay; assay type: functional
[44] = tested on: NCI-H661; assay: Potentiation of cisplatin-induced cytotoxicity against human NCI-H661 cells assessed as fold reduction in cisplatin IC50 at 1:14 ratio of cisplatin to compound measured after 48 hrs by MTT assay relative to cisplatin alone; assay type: functional
[45] = tested on: A549; assay: Potentiation of cisplatin-induced cytotoxicity against human A549 cells assessed as combination index at 1:4 ratio of cisplatin to compound measured after 48 hrs by MTT assay; assay type: functional
[46] = tested on: A549; assay: Potentiation of raloxifene-induced cytotoxicity against human A549 cells assessed as fold reduction in raloxifene IC50 at 1:2 ratio of raloxifene to compound measured after 48 hrs by MTT assay relative to raloxifene alone; assay type: functional
[47] = tested on: NCI-H661; assay: Potentiation of raloxifene-induced cytotoxicity against human NCI-H661 cells assessed as fold reduction in raloxifene IC50 at 1:7 ratio of raloxifene to compound measured after 48 hrs by MTT assay relative to raloxifene alone; assay type: functional
[48] = tested on: NCI-H661; assay: Potentiation of raloxifene-induced cytotoxicity against human NCI-H661 cells assessed as combination index at 1:7 ratio of raloxifene to compound measured after 48 hrs by MTT assay; assay type: functional

COc1ccc(CNc2nc(N3CCC[C@H]3CO)ncc2C(=O)NCc2ncccn2)cc1Cl [AVANAFIL]
Activity [1]: Dose-Dependent Effect
IC50 [1]: 264 µM
Activity [2]: Dose-Dependent Effect
IC50 [2]: 170 µM
Activity [3]: Active
fold change (FC) [4]: 2.4
Activity [5]: Active
Activity [6]: Dose-Dependent Effect
IC50 [6]: 131 µM
Activity [7]: Dose-Dependent Effect
IC50 [7]: 186 µM
Activity [8]: Dose-Dependent Effect
IC50 [8]: 184 µM
fold change (FC) [9]: 1.9
fold change (FC) [10]: 3
Activity [11]: Tde
Activity [12]: 44%
Activity [13]: Dose-Dependent Effect
IC50 [13]: 169 µM
CI [14]: 0.73
Activity [15]: Tde
CI [16]: 0.99
CI [17]: 0.9
Activity [18]: Dose-Dependent Effect
Activity [19]: Dose-Dependent Effect
IC50 [19]: 162 µM
inhibition [20]: Active
CI [21]: 0.69
Activity [22]: Active
fold change (FC) [23]: 2.8
Activity [24]: Dose-Dependent Effect
IC50 [24]: 78.5 µM
Activity [25]: Dose-Dependent Effect
CI [26]: 0.95
Activity [27]: Dose-Dependent Effect
IC50 [27]: 127 µM
inhibition [28]: Active
Activity [29]: Tde
fold change (FC) [30]: 2.1
CI [31]: 0.89
fold change (FC) [32]: 2.7

O=C(c1ccc(OCCN2CCCCC2)cc1)c1c(-c2ccc(O)cc2)sc2cc(O)ccc12 [RALOXIFENE]
IC50 [2]: 45.6 µM
IC50 [7]: 44.5 µM
IC50 [8]: 45 µM

CCCc1nn(C)c2c(=O)[nH]c(-c3cc(S(=O)(=O)N4CCN(C)CC4)ccc3OCC)nc12 [SILDENAFIL]
IC50 [2]: > 500 µM
IC50 [7]: > 500 µM
IC50 [8]: > 500 µM

CN1CC(=O)N2[C@H](c3ccc4c(c3)OCO4)c3[nH]c4ccccc4c3C[C@@H]2C1=O [TADALAFIL]
CI [33]: 0.78
Activity [1]: Dose-Dependent Effect
IC50 [1]: 876 µM
Activity [2]: Dose-Dependent Effect
IC50 [2]: 106 µM
inhibition [34]: Active
Activity [3]: Active
inhibition [35]: Active
CI [36]: 0.89
Activity [6]: Dose-Dependent Effect
IC50 [6]: 73.9 µM
Activity [7]: Dose-Dependent Effect
IC50 [7]: 281 µM
Activity [8]: Dose-Dependent Effect
IC50 [8]: 274 µM
Activity [37]: Active
Activity [11]: Tde
Activity [13]: Dose-Dependent Effect
IC50 [13]: 127 µM
fold change (FC) [38]: 5.2
fold change (FC) [39]: 2.6
Activity [15]: Tde
fold change (FC) [40]: 2.1
Activity [41]: 22.2%
Activity [18]: Dose-Dependent Effect
Activity [19]: Dose-Dependent Effect
IC50 [19]: 359 µM
CI [42]: 0.98
CI [43]: 0.44
Activity [22]: Active
fold change (FC) [44]: 2
Activity [24]: Dose-Dependent Effect
IC50 [24]: 243 µM
Activity [25]: Dose-Dependent Effect
Activity [27]: Dose-Dependent Effect
IC50 [27]: 354 µM
CI [45]: 0.92
fold change (FC) [46]: 1.9
Activity [29]: Tde
fold change (FC) [47]: 2.1
CI [48]: 0.89
